US9302988B2, “Fluoromethyl-substituted pyrrole carboxamides” (GRÜNENTHAL GMBH, priority 2012, dated 2016)

biological target: T1, Human CaV2.2 channels (Homo sapiens, UniProt Q00975); test: Fluorescent assay for CaV2.2 channels using potassium depolarization to induce channel opening (FLIPR, Fluo-4); assay type: cell-based; settings: 3 μM test compound, 30 mM KCl, HEK293 cells stably expressing human CaV2.2; read-out: %-Inhib (CaV2.2) @3 μM @30 mM KCl
T1 construct: expressed in transfected cells
Excerpt: In the process, the Ca^2+ influx is quantified in the FLIPR assay with the aid of a Ca^2+-sensitive dye (type Fluo-4, Molecular Probes Europe BV, Leiden, the Netherlands) in a fluorescent imaging plate reader (FLIPR 3, Molecular Devices, Sunnyvale, USA), as described hereinafter.
2.1 Fluorescent Assay for CaV2.2 Channels Using Potassium Depolarization to Induce Channel Opening
Human CaV2.2 channels were stably expressed in HEK293 cells together with alpha2-delta and beta subunits of voltage gated calcium channels. In addition, an inwardly rectifying potassium channel (Kir2.3) was stably expressed in these cells to augment control of the cell membrane potential by the concentration of extracellular potassium ions. Raise of the extracellular potassium concentration leads to depolarization of the membrane potential and thus regulates the voltage dependent state of CaV2.2 channels. For preparation, cells were seeded in black poly-D-lysine coated 96-well plates (Becton Dickinson, Biocoat 4640) in 100 μl medium [500 ml DMEM/F-12 plus Glutamax (Invitrogen 31331-093) plus 5.5 ml MEM NEAA 100× (Invitrogen 11140-035) plus 50 ml FBS decomplemented (Invitrogen 10270-106) plus 4.4 ml Geneticin (Invitrogen 10131-027) plus 1.1 ml Hygromycin B (Invitrogen 10687-010) plus 68.75 μl Puromycin (Clontech, 631306)] at a cell density of 45.000 cells per well.
Plates were incubated at 37° C. (5% CO2) for 20 to 23 hours. On the day of experiment medium was discarded and cells were loaded with Fluo 4 by addition of 100 μl of basic assay buffer (10 mM HEPES, 30 mM KCl, 120 mM NaCl, 0.8 mM CaCl2, 1.7 mM MgCl2, 10 mM Glucose, 0.1% BSA. pH 7.4) containing 2 μM Fluo 4 (Molecular Probes; F-14201), 0.01% pluronic acid (Molecular Probes; P-6866) and 2.5 mM probenecid (Molecular Probes; P36400). Cells were incubated in the dark at 25° C. for 60 min. Then the dye containing buffer was discarded and 100 μl basic assay buffer was added. Subsequently cells were incubated in the dark at 25° C. for 15 min. 25 μl of basic assay buffer with or without test compound were added and cells were incubated again in the dark at 25° C. for 15 min. Fluorescence intensity was measured on a FLIPR 3 instrument (Molecular Devices Corp., Sunnyvale, Calif.) with excitation at 480 nm and emission at 535 nm. After continuously reading fluorescence for 30 sec, 50 μl of basic assay buffer containing 210 mM KCl (NaCl omitted) were added for depolarization. Peak fluorescent signal intensity was determined and the amplitude of the peak signal, normalized to base line, was used to measure channel inhibition by test compounds.

T1 sequence (Q00975 whole entry): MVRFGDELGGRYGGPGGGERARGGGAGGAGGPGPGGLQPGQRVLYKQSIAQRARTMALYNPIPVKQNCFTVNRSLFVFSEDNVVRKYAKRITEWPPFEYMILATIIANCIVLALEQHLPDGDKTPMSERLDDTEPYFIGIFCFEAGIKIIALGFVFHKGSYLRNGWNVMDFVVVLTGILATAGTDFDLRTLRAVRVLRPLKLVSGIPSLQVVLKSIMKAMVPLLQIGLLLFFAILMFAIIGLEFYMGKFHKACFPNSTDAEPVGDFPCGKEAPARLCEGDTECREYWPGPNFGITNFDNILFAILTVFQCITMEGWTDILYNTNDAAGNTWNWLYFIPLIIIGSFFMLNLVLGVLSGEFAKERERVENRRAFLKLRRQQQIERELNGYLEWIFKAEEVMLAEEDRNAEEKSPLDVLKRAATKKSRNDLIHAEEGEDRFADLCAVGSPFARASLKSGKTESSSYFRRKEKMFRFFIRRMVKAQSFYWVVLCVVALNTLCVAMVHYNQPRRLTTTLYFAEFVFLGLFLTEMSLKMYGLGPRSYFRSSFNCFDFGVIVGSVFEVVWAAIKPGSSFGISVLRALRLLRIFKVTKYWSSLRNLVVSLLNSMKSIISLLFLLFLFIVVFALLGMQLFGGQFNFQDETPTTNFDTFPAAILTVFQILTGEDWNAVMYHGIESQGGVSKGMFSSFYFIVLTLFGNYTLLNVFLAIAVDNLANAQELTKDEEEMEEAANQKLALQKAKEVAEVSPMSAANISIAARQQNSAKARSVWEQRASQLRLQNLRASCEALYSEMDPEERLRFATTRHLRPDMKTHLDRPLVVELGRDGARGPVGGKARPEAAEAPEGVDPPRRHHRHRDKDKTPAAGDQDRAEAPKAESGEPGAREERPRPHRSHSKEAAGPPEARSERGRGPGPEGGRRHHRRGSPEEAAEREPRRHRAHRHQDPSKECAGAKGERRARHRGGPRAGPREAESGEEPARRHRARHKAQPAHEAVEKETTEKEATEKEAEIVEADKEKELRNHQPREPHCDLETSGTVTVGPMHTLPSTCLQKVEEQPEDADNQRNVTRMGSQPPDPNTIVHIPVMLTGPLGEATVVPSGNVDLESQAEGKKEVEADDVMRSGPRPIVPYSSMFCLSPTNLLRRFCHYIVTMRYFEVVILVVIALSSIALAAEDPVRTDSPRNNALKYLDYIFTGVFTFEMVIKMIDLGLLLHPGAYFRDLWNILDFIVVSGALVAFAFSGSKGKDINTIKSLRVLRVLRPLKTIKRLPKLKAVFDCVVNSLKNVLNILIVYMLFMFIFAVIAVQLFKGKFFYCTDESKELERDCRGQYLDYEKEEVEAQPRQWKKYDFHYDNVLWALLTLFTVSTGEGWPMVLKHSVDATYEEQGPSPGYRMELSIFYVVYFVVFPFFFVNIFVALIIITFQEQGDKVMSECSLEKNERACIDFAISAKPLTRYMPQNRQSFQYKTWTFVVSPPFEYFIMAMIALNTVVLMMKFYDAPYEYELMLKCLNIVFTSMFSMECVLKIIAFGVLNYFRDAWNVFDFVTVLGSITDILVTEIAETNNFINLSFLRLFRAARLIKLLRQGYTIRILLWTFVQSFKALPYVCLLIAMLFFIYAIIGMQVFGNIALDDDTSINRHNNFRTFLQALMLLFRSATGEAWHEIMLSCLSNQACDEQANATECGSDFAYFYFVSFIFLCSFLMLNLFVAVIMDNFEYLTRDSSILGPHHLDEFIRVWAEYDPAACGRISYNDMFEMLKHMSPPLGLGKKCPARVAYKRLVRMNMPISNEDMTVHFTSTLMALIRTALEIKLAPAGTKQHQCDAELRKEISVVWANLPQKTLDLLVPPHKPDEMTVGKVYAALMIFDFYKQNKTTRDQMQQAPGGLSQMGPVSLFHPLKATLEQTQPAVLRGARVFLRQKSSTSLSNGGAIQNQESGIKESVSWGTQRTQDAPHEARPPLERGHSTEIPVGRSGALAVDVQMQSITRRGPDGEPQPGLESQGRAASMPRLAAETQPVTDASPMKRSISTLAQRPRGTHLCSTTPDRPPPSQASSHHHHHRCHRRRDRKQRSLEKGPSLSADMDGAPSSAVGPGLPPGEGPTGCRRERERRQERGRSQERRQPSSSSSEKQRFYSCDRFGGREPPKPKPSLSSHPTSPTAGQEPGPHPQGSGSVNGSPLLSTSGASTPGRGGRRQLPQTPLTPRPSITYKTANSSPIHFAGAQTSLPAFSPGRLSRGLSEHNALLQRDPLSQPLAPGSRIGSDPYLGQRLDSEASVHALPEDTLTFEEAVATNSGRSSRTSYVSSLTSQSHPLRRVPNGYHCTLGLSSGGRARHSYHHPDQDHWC
T1 sequence (P54289 25-1103, further chain): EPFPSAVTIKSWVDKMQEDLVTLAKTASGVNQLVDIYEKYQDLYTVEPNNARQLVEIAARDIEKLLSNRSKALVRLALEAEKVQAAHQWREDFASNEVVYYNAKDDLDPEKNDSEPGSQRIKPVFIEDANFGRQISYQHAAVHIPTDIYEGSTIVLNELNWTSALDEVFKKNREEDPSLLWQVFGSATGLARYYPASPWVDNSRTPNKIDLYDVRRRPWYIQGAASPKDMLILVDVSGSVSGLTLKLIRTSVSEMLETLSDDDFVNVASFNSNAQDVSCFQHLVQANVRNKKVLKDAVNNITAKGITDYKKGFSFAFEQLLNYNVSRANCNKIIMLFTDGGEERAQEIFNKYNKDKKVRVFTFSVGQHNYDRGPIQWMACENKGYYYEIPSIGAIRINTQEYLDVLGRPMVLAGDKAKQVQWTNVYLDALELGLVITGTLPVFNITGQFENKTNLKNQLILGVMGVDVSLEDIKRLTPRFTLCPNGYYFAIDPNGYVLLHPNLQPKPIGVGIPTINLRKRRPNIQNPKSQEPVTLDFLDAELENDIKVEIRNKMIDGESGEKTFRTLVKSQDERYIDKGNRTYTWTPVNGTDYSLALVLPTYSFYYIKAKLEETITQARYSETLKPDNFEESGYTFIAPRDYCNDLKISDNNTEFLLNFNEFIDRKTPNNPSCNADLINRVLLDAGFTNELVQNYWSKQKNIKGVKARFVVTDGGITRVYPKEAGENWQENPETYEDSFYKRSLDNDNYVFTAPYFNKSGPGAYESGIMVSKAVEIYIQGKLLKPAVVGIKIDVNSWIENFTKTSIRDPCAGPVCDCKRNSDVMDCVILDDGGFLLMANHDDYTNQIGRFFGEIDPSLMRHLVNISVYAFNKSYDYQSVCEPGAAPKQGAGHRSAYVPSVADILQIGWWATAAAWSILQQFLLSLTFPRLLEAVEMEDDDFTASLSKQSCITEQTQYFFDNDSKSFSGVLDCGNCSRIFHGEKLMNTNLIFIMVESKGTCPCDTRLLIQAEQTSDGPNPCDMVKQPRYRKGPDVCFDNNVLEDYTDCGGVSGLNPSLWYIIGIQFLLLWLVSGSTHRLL
T1 sequence (P54284 whole entry, further chain): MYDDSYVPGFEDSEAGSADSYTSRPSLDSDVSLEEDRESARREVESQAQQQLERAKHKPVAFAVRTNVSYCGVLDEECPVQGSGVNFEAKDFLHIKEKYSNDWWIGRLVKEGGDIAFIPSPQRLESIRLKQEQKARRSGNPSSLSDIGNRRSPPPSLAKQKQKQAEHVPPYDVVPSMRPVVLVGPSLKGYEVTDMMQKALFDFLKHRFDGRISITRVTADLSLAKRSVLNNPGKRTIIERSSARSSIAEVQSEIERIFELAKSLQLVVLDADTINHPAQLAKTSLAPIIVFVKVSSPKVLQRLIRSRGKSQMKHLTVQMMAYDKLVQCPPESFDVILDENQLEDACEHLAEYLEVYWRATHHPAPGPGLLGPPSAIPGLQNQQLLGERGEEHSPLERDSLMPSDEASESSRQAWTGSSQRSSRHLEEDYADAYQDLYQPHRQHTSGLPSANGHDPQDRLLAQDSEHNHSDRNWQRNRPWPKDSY

First: Cc1c(-c2ccc(Cl)cc2)c(C(=O)N2CC[S+]([O-])CC2)n(Cc2ccccc2)c1C(F)(F)F [SC-19, [1-Benzyl-3-(4-chlorophenyl)-4-methyl-5-(trifluoromethyl)-1H-pyrrol-2-yl]-(1-oxo-[1,4]thiazinan-4-yl)-methanone]
Second: Cc1c(-c2ccc(Cl)cc2)c(C(=O)N2CCS(=O)(=O)CC2)n(Cc2ccccc2)c1C(F)(F)F [SC-26, [1-Benzyl-3-(4-chlorophenyl)-4-methyl-5-(trifluoromethyl)-1H-pyrrol-2-yl]-(1,1-dioxo-[1,4]thiazinan-4-yl)-methanone]
The inhibition at 3 µM of the first is higher: over 95% for the first, 75 to 95% for the second.

`Cc1c(-c2ccc(Cl)cc2)c(C(=O)N2CCOC(CO)C2)n(Cc2ccccc2)c1C(F)(F)F` (centres unmarked) [SC-20, [1-Benzyl-3-(4-chlorophenyl)-4-methyl-5-(trifluoromethyl)-1H-pyrrol-2-yl]-[2-(hydroxymethyl)-morpholin-4-yl]-methanone] and `Cc1c(-c2ccc(Cl)cc2)c(C(=O)N2CCC(O)C2)n(Cc2ccccc2)c1C(F)(F)F` (centres unmarked) [SC-23, [1-Benzyl-3-(4-chlorophenyl)-4-methyl-5-(trifluoromethyl)-1H-pyrrol-2-yl]-(3-hydroxy-pyrrolidin-1-yl)-methanone] fall in the same range of inhibition at 3 µM: 75 to 95% for the first, 75 to 95% for the second.

`Cc1c(-c2ccc(Cl)cc2)c(C(=O)N(C)CC2CCOCC2)n(Cc2ccccc2)c1C(F)(F)F` [SC-21, 1-Benzyl-3-(4-chlorophenyl)-N,4-dimethyl-N-(tetrahydro-pyran-4-yl-methyl)-5-(trifluoromethyl)-1H-pyrrole-2-carboxylic acid amide] and `Cc1c(-c2ccc(Cl)cc2)c(C(=O)N(C)C2CC2)n(Cc2ccccc2)c1C(F)(F)F` [SC-34, 1-Benzyl-3-(4-chlorophenyl)-N-cyclopropyl-N,4-dimethyl-5-(trifluoromethyl)-1H-pyrrole-2-carboxylic acid amide] cannot be ordered by inhibition at 3 µM: over 95% for the first, over 95% for the second.

`CNC(=O)c1c(-c2ccc(Cl)cc2)c(C)c(C(F)(F)F)n1Cc1ccccc1` [SC-22, 1-Benzyl-3-(4-chlorophenyl)-N,4-dimethyl-5-(trifluoromethyl)-1H-pyrrole-2-carboxylic acid amide] and `Cc1c(-c2ccc(Cl)cc2)c(C(=O)NC2CC2)n(Cc2ccccc2)c1C(F)(F)F` [SC-35, 1-Benzyl-3-(4-chlorophenyl)-N-cyclopropyl-4-methyl-5-(trifluoromethyl)-1H-pyrrole-2-carboxylic acid amide] fall in the same range of inhibition at 3 µM: 75 to 95% for the first, 75 to 95% for the second.

`Cc1c(-c2ccc(Cl)cc2)c(C(=O)N(C)CCO)n(Cc2ccccc2)c1C(F)(F)F` [SC-24, 1-Benzyl-3-(4-chlorophenyl)-N-(2-hydroxy-ethyl)-N,4-dimethyl-5-(trifluoromethyl)-1H-pyrrole-2-carboxylic acid amide] and `CC(=O)NCCN(C)C(=O)c1c(-c2ccc(Cl)cc2)c(C)c(C(F)(F)F)n1Cc1ccccc1` [SC-37, N-(2-Acetylamino-ethyl)-1-benzyl-3-(4-chlorophenyl)-N,4-dimethyl-5-(trifluoromethyl)-1H-pyrrole-2-carboxylic acid amide] cannot be ordered by inhibition at 3 µM: over 95% for the first, over 95% for the second.

`Cc1c(-c2ccc(Cl)cc2)c(C(=O)N2CCOCC2)n(Cc2cccc(Cl)c2)c1C(F)(F)F` [SC-25, [3-(4-Chlorophenyl)-1-[(3-chlorophenyl)-methyl]-4-methyl-5-(trifluoromethyl)-1H-pyrrol-2-yl]-morpholin-4-yl-methanone] and `Cc1c(-c2ccc(Cl)cc2)c(C(=O)N2CCOC(=O)C2)n(Cc2ccccc2)c1C(F)(F)F` [SC-50, 4-[1-Benzyl-3-(4-chlorophenyl)-4-methyl-5-(trifluoromethyl)-1H-pyrrole-2-carbonyl]-morpholin-2-one] fall in the same range of inhibition at 3 µM: 75 to 95% for the first, 75 to 95% for the second.

`Cc1c(-c2ccc(Cl)cc2)c(C(=O)N2CCNC(C)(C)C2)n(Cc2ccccc2)c1C(F)(F)F` [SC-29, [1-Benzyl-3-(4-chlorophenyl)-4-methyl-5-(trifluoromethyl)-1H-pyrrol-2-yl]-(3,3-dimethyl-piperazin-1-yl)-methanone] and `Cc1c(-c2ccc(Cl)cc2)c(C(=O)N2CCOC(C)(C)C2)n(Cc2ccccc2)c1C(F)(F)F` [SC-40, [1-Benzyl-3-(4-chlorophenyl)-4-methyl-5-(trifluoromethyl)-1H-pyrrol-2-yl]-(2,2-dimethyl-morpholin-4-yl)-methanone] cannot be ordered by inhibition at 3 µM: over 95% for the first, over 95% for the second.

`COc1cccc(-n2c(C(=O)N3CC(F)(F)C3)c(-c3ccc(Cl)cc3)c(C)c2C(F)(F)F)c1` [SC-32, [3-(4-Chlorophenyl)-1-(3-methoxyphenyl)-4-methyl-5-(trifluoromethyl)-1H-pyrrol-2-yl]-(3,3-difluoro-azetidin-1-yl)-methanone] and `Cc1c(-c2ccc(Cl)cc2)c(C(=O)N2CC(F)(F)C2)n(-c2cccc(Cl)c2)c1C(F)(F)F` [SC-33, [1-(3-Chlorophenyl)-3-(4-chlorophenyl)-4-methyl-5-(trifluoromethyl)-1H-pyrrol-2-yl]-(3,3-difluoro-azetidin-1-yl)-methanone] fall in the same range of inhibition at 3 µM: 75 to 95% for the first, 75 to 95% for the second.

`COC1(CNC(=O)c2c(-c3ccc(Cl)cc3)c(C)c(C(F)(F)F)n2Cc2ccccc2)CC1` [SC-36, 1-Benzyl-3-(4-chlorophenyl)-N-[(1-methoxy-cyclopropyl)-methyl]-4-methyl-5-(trifluoromethyl)-1H-pyrrole-2-carboxylic acid amide] and `Cc1c(-c2ccc(Cl)cc2)c(C(=O)N(C)C2(CO)CC2)n(Cc2ccccc2)c1C(F)(F)F` [SC-48, 1-Benzyl-3-(4-chlorophenyl)-N-[1-(hydroxymethyl)-cyclopropyl]-N,4-dimethyl-5-(trifluoromethyl)-1H-pyrrole-2-carboxylic acid amide] cannot be ordered by inhibition at 3 µM: over 95% for the first, over 95% for the second.

`Cc1c(-c2ccc(Cl)cc2)c(C(=O)N(C)CCNS(C)(=O)=O)n(Cc2ccccc2)c1C(F)(F)F` [SC-38, 1-Benzyl-3-(4-chlorophenyl)-N-[2-(methanesulfonamido)-ethyl]-N,4-dimethyl-5-(trifluoromethyl)-1H-pyrrole-2-carboxylic acid amide] and `Cc1c(-c2ccc(Cl)cc2)c(C(=O)N(C)C2(C(N)=O)CC2)n(Cc2ccccc2)c1C(F)(F)F` [SC-49, 1-Benzyl-N-(1-carbamoyl-cyclopropyl)-3-(4-chlorophenyl)-N,4-dimethyl-5-(trifluoromethyl)-1H-pyrrole-2-carboxylic acid amide] cannot be ordered by inhibition at 3 µM: over 95% for the first, over 95% for the second.

`Cc1c(-c2ccc(Cl)cc2)c(C(=O)N(C)C2CCN(C)CC2)n(Cc2ccccc2)c1C(F)(F)F` [SC-39, 1-Benzyl-3-(4-chlorophenyl)-N,4-dimethyl-N-(1-methyl-piperidin-4-yl)-5-(trifluoromethyl)-1H-pyrrole-2-carboxylic acid amide] and `CCOC(=O)C1(N(C)C(=O)c2c(-c3ccc(Cl)cc3)c(C)c(C(F)(F)F)n2Cc2ccccc2)CC1` [SC-52, 1[[1-Benzyl-3-(4-chlorophenyl)-4-methyl-5-(trifluoromethyl)-1H-pyrrole-2-carbonyl]-methyl-amino]-cyclopropane-1-carboxylic acid ethyl ester] cannot be ordered by inhibition at 3 µM: over 95% for the first, over 95% for the second.

`Cc1c(-c2ccc(Cl)cc2)c(C(=O)N2CCOCC2)n(Cc2ccccc2)c1C(F)F` [SC-41, [1-Benzyl-3-(4-chlorophenyl)-5-(difluoro-methyl)-4-methyl-1H-pyrrol-2-yl]-morpholin-4-yl-methanone] and `Cc1c(-c2ccc(Cl)cc2)c(C(=O)N(C)CC(C)(C)C)n(Cc2ccccc2)c1C(F)F` [SC-42, 1-Benzyl-3-(4-chlorophenyl)-5-(difluoro-methyl)-N-(2,2-dimethyl-propyl)-N,4-dimethyl-1H-pyrrole-2-carboxylic acid amide] cannot be ordered by inhibition at 3 µM: over 95% for the first, over 95% for the second.

First: Cc1c(-c2ccc(Cl)cc2)c(C(=O)N2CC(F)(F)C2)n(-c2ccc(Cl)cc2)c1C(F)(F)F [SC-44, [1,3-Bis(4-chlorophenyl)-4-methyl-5-(trifluoromethyl)-1H-pyrrol-2-yl]-(3,3-difluoro-azetidin-1-yl)-methanone]
Second: Cc1c(-c2ccc(Cl)cc2)c(C(=O)N2CCOCC2)n(CCOc2ccc(F)cc2)c1C(F)(F)F [SC-51, [3-(4-Chlorophenyl)-1-[2-(4-fluoro-phenoxy)-ethyl]-4-methyl-5-(trifluoromethyl)-1H-pyrrol-2-yl]-morpholin-4-yl-methanone]
The inhibition at 3 µM of the first is lower: 75 to 95% for the first, over 95% for the second.
